Assay results taken from patent US7906477B2 (Genspera, Inc., priority 2002, dated 2011).
Blank lines part the entries; values can stand above or below the compound they belong to. Square brackets hold non-standard residues; d marks the D form. Ends that are not written are not given here. Peptide text beside a SMILES is read from it. * marks the point of attachment. X1 = C/C=C(/C)C(=O)O[C@H]1C(C)=C2[C@H]([C@@H]1OC(=O)CCCCCCC)[C@@](C)(OC(C)=O)C[C@H](OC(=O)CCCCCCCCCCCN*)[C@@]1(O)[C@H]2OC(=O)[C@@]1(C)O; Tyr(3-NO2) = N[C@@H](Cc1ccc(O)c([N+](=O)[O-])c1)C(=O)O; AMC = Cc1cc(=O)oc2cc(N*)ccc12; Abz = aminobenzoic acid; Dap = NC[C@H](N)C(=O)O

Assays:
hK2 [1] = target: T1, hK2 (Homo sapiens, UniProt P20151); details: previously reported; cited from earlier work
T1 construct: made in house
T1 sequence (P20151 25-261): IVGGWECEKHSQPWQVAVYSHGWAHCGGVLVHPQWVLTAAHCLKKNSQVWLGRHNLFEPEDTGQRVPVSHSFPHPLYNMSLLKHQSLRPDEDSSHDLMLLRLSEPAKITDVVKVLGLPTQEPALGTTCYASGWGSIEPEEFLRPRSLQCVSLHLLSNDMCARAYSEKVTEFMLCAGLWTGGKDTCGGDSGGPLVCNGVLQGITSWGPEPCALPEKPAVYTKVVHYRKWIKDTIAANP

hK2 [2] = target: T1, hK2; test: on-bead digestion of PEGA-bound fluorescence-quenched peptides by hK2; type: biochemical; details: 4 μg/ml hK2, PEGA resin
Method: For screening, approximately 1 ml of resin (˜65,000 beads) was first suspended in methanol in a Petri dish and examined under transilluminant UV light (302 nm) to detect any falsely positive fluorescent beads prior to addition of protease. After removal of ˜40-50 beads, the resin was washed with water and finally suspended in 10 ml buffer in a glass Petri dish. After a final screen for false-positives, hK2 was added from a frozen stock solution to make 4 μg/ml final. Fluorescent beads were selected and removed with a micropipette, washed with 1 M NaCl, water, DMF, MeOH, water and stored in MeOH at −20° C.
Additionally, Walle and co-workers (Thorpe, D. S. and Walle, S. (2000) Biochem. Biophys. Res. Commun. 269:591-595) published data from a small combinatorial library to find linkers for the optimal display of peptide ligands to various protein targets. They reported that the insertion of a dipeptide consisting of a cationic residue together with a hydrophobic residue presents a general method for optimizing peptide display on solid phase beads. […] The test peptide Y′GKAFRL-Dap-F-K′-PEGA (SEQ ID NO:53) was synthesized and observed that the time required to generate clearly detectable fluorescence on the beads was reduced to 4-5 hours compared to 10-12 hours for the same peptide sequence lacking the Dap-F linker. […]

[3] = test system: human prostate cancer cells; details: human prostate cancer cells in vitro; cited from earlier work
hK2 [4] = test: hK2, fluorescence-quenched peptides tested in solution; details: human, up to prolonged incubation
Cathepsin B = test: Cathepsin B, 1 μg/ml
Cathepsin D = test: Cathepsin D, 1 μg/ml
hK2 [5] = test: hK2 (4 μg/ml) in 50 mM Tris, 0.1 M NaCl, pH 7.8; details: human, room temperature, up to 24 hours
Plasmin = test: Plasmin, 1 μg/ml
Urokinase = test: Urokinase, 1 μg/ml
[6] = 50% fresh heparinized (1%) plasma; 50% human plasma; details: room temperature, up to 24 hours
Balb-C mice = test: in vivo toxicity, single and repeated intravenous injection; parameters: species or system mouse
Method: To determine in vivo toxicity of ac-GKAFRR-L12ADT (SEQ ID NO:41), Balb-C mice (Harlan) received a single intravenous injection of an increasing dose of prodrug. Mice were monitored for toxicity hourly for twelve hours and then daily×one week. Separate groups of three mice each received increasing doses of ac-GKAFRRL12ADT (SEQ ID NO:41). […] All animals receiving doses less than LD100 were alive and well up to 1 week after receiving a single dose. All procedures were performed according to protocols approved by the Johns Hopkins Animal Care and Use Committee.
Balb-C mice were treated in groups of 3with a single intravenous injection of increasing doses of the ac-GKAFRR-L12ADT (SEQ ID NO:41) prodrug to establish the dose that killed 100% of mice (i.e. LD100). […] All mice, however, tolerated a single intravenous dose of 3.67 μmoles/kg and this dose was then used for further dosing and pharmacokinetic studies.

[7] = pharmacokinetics after single intravenous dose, plasma levels by LC/MS/MS; type: in vivo, mouse; details: Balb-C mice, single intravenous dose 3.67 μmoles/kg
Method: FIG. 9 depicts pharamacokinetic analysis of GKAFRR-L12ADT (SEQ ID NO:44) following single intravenous injection of 3.67 μmole/kg. Mice were treated in groups of 3 and then sacrificed at indicated time points. Data represent average±standard error of plasma concentrations as determined by LC-MS analysis.
Calibration standards consisted of ac-GKAFRR-L12ADT prodrug, RL12ADT or L12ADT spiked into mouse plasma and plasma samples from treated mice were analyzed by liquid chromatography coupled to a quadrupolequadripole mass spectrometer (LC/MS/MS) [PESciex API 3000]. A multistep gradient elution HPLC method was used to separate the ac-GKAFRR-L12ADT prodrug from the free RL12ADT and L12ADT with eluent A=2 mM ammonium acetate with 0.1% formic acid 1% acetic acid in deionized water and eluent B=90% acetonitrile/1% acetic acid/[…]. Samples were eluted through a Zorbax SB-C18 Rapid Resolution column (2/1×30 mm, 3.5 μm) at a flow rate of 0.3 ml/min and gradient of 100% A to 100% B over 12 minutes. Calibration was done using extracted standards of ac-GKAFRR-L12ADT added to and then extracted from mouse plasma in a range of 0.001-10 μM, and linear regression analysis was used to generate best-fit lines, from which peak areas of samples were converted to concentration of prodrug. Peak areas of RL12ADT and L12ADT were below limit of detection at all time points and, therefore, calibration was not performed. Single-dose pharmacokinetics were assessed by noncompartmental analysis (Gibaldi, M. and Perroer, D. Pharmacokinetics, 2nd edition, p. 407-409. New York, 1982) The area under the curve from time zero to infinity (AUC0-∞) was calculated with the linear trapezoidal method (Gibaldi, M. and Perroer, D. Pharmacokinetics, 2nd edition, p. 407-409. New York, 1982)). The terminal half-life (T1/2) was determined from the terminal slope (ke) on a log-linear plot of concentration versus time.
To determine pharmacokinetic parameters for the hK2-activated thapsigargin prodrug, Balb-C mice (n=3/timepoint) were treated with a single intravenous dose of 3.67 μmoles/kg of the ac-GKAFRR-L12ADT (SEQ ID NO:41) prodrug. At various time points (5, 10, 30 minutes and 1, 1.5, 2, 3, 4, 6, 12, 24 hrs) mice were sacrificed after blood was obtained by cardiac puncture. After precipitating serum proteins with acetonitrile, supernatants were evaluated by LC-MS to determine concentrations of ac-GKAFRR-L12ADT (SEQ ID NO:41), R-L12ADT and L12ADT at each time points. Areas under the curve were converted to concentrations based on a standard curve that was linear for concentrations ranging from 1 nM to 10,000 nM. […] Both RL12ADT and L12ADT were below the lower limit of detection (i.e. <1 nM) for all time points, FIG. 6.

[8] = plasma stability in 50% human plasma; type: in vitro ADME; details: 50% fresh heparinized plasma, 24 hours, room temperature, HPLC and MALDI-TOF
Method: FIG. 5 depicts the stability of Ac-GKAFRR-L12ADT (SEQ ID NO:41) in human plasma after a 24 hour incubation, as determined by HPLC analysis. Ac-GKAFRR-L12ADT (SEQ ID NO:41) was incubated in 50% human plasma for 24 hours at room temperature. Peak 1 represents an unidentified plasma contaminant that was also present in control plasma. Peaks 2 and 3 both represent Ac-GKAFRR-L12ADT (SEQ ID NO:41) as confirmed by MALDI-TOF mass spectrometric analysis.
Mouse plasma was obtained from cardiac puncture of anesthetized mice prior to euthanization by CO2 overdose according to protocols approved by the Johns Hopkins Animal Care and Use Committee. Human plasma was obtained from discarded, pooled, and unlabeled clinical samples. Plasma was diluted to 50% in Tris buffer (50 mM Tris-HCl, 100 mM NaCl, pH 7.8). To this, test peptides/prodrugs were added to 250 or 500 μM final concentration. After the incubation period, one volume (200 μl) of acetonitrile was added to precipitate the protein fraction and the tube was centrifuged at 14,000 for 2 min. The supernatant was analyzed by C18-HPLC and the collected peaks were analyzed by MALDI-TOF as described above.
Arginine-containing peptides are potential substrates for the wide variety of other trypsin-like proteases that are present in the blood and may have residual activity in the blood. The plasma stability of an hK2 peptide substrate may therefore be limited and this would have significant consequences related to the development of an hK2 activated prodrug. Therefore, two fluorescence quenched hK2 peptide substrates peptides were incubated in 50% mouse or human plasma (diluted in PBS buffer) to determine stability using a plate-reader. As observed with arginine containing peptides from the SPOT analysis above, none of the arginine-containing, fluorescence quenched hK2peptide substrates were stable in human or mouse plasma. Fluorescence-quenched Y′GKAFRR-Dap-GK′ (SEQ ID NO:42) and Y′GKAFRRLGK′ (SEQ ID NO:21) (500 μM each) were hydrolyzed when incubated in 50% mouse or human plasma (FIG. 7). Mouse plasma degraded the peptides faster than human plasma (FIG. 7). […] In human plasma, more peptide remained after 3 hours (˜25%). […] The proteolytic activity from plasma was never affected by repeated freeze-thaw cycles or by storage of the mouse plasma alone at room temperature for several days.
To determine the plasma stability for the hK2 prodrug, the prodrug was incubated in 50% fresh heparinized (1%) plasma for 24 hours at room temperature, precipitated the proteins by adding one volume of 1% TFA in acetonitrile and analyzed the supernatant by HPLC. Unexpectedly, BPLC analysis after 24 hrs incubation in plasma yielded only a single peak corresponding to the hK2 prodrug (FIG. 5). MALDI-TOF MS of the isolated single peak confirmed the stability of the molecule.

hK2 [9] = test: 8 μg/ml hK2 in PBS buffer; details: human
[10] = five consecutive daily intravenous injections of 3.67 μmoles/kg

Compound: Pro-Phe-Arg-{AMC}
Km (hK2 [1]): 40 µM | kcat (hK2 [1]): 0.92 s⁻¹

incubation time to yield clearly detectable fluorescent beads (hK2 [2]): 4 to 5 h
Compound: Y′GKAFRL-Dap-F-K′-PEGA: test peptide on PEGA resin with Dap-F linker ([Tyr(3-NO2)]GKAFRL[Dap]FK(Abz)-{PEGA resin})

Compound: CC=C(C)C(=O)OC1C(C)=C2C(C1OC(=O)CCCCCCC)C(C)(OC(C)=O)CC(OC(=O)CCCCCCCCCCCNC(=O)C(N)CC(C)C)C1(O)C2OC(=O)C1(C)O [L12ADT, 8-O-(12-[L-leucinoylamino]dodecanoyl)-8-O-debutanoylthapsigargin]
LD50 [3]: ~30 nM

Compound: Y′GSKGPFKL-Dap-K′
not cleaved (hK2 [4]): not digested by hK2, even after prolonged incubation

cleaved bond (hK2 [5]): Arg-Leu | cleaved bond (Plasmin): arginine-arginine
Compound: Ac-GKAFRR-L12ADT
not cleaved (Cathepsin B): No appreciable hydrolysis; relative rate 1 (approximately 0.1% digestion in 1 hour) | not cleaved (Cathepsin D): No appreciable hydrolysis; relative rate 1 (approximately 0.1% digestion in 1 hour) | not cleaved (Urokinase): no activity on the prodrug; relative rate 1 (approximately 0.1% digestion in 1 hour) | not cleaved [6]: only a single peak corresponding to the hK2 prodrug after 24 hrs; no degradation products

Compound: Y′GSKGHFKL-Dap-K′
not cleaved (hK2 [4]): not digested by hK2, even after prolonged incubation

Compound: C/C=C(/C)C(=O)O[C@H]1C(C)=C2[C@H]([C@@H]1OC(=O)CCCCCCC)[C@@](C)(OC(C)=O)C[C@H](OC(=O)CCCCCCCCCCCNC(=O)[C@H](CC(C)C)NC(=O)[C@H](CCCNC(=N)N)NC(=O)[C@H](CCCNC(=N)N)NC(=O)[C@H](Cc1ccccc1)NC(=O)[C@H](C)NC(=O)[C@H](CCCCN)NC(=O)CNC(C)=O)[C@@]1(O)[C@H]2OC(=O)[C@@]1(C)O [ac-GKAFRR-L12ADT] (Ac-GKAFRRL-X1)
single intravenous dose tolerated by all mice (Balb-C mice; Balb-C mice, single intravenous dose): 3.67 µmol/kg | toxicity of repeated dosing (in words) (Balb-C mice; [10]): without any deaths or observable toxicity | weight loss over baseline (Balb-C mice; [10]): < 15% | stability in the serum in vivo (in words) [7]: highly stable to hydrolysis in the serum in vivo | half-life ([7]; mouse, plasma): 40.7 ± 1.2 min | AUC(0-inf) ([7]; mouse, plasma, read-out: area under the curve (converted)): 40.7 µM·h | Cmax ([7]; mouse, plasma): 36.8 ± 7.2 µM | plasma stability of the prodrug (in words) [8]: No degradation products could be identified

Compound: Abz-GKAFRRLY′
not cleaved (Cathepsin B): No appreciable hydrolysis; relative rate 1 (approximately 0.1% digestion in 1 hour) | not cleaved (Cathepsin D): No appreciable hydrolysis; relative rate 1 (approximately 0.1% digestion in 1 hour)

not cleaved (hK2 [9]): did not show any hydrolysis
Compound: Y′GSKGHFKL-Dap-F-K′

incubation time to yield clearly detectable fluorescent beads (hK2 [2]): 10 to 12 h
Compound: Y′GKAFRLK′-PEGA: test hK2 peptide substrate on PEGA resin ([Tyr(3-NO2)]GKAFRLK(Abz)-{PEGA resin})
